From patent US9695155B2, “Herbicidal substituted pyrimidinyloxy benzene compounds” (E. I. DU PONT DE NEMOURS AND COMPANY, priority 2013, dated 2017)

Columns and labels:
Assay in all cases: Test C preemergence
blackgrass = assay type: in vivo, Alopecurus myosuroides; conditions: Alopecurus myosuroides, pre-emergence
In short: (§1)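 Greenhouse herbicide screen. Pre: seeded loam/sand, sprayed at planting. Post: 1–4 leaf plants (2–18 cm) in peat-based mix. Formulation: solvent mixture + surfactant, non-phytotoxic. Readout: visual % control vs untreated, 13–15 d; dash = not tested.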

wheat, winter = assay type: in vivo, Triticum aestivum; conditions: Triticum aestivum, pre-emergence
In short: as §1

galium = assay type: in vivo, Galium aparine; conditions: Galium, pre-emergence
In short: as §1

giant foxtail = assay type: in vivo, Setaria faberii; conditions: Setaria faberi, pre-emergence
In short: as §1

johnsongrass = assay type: in vivo, Sorghum halepense; conditions: Sorghum halepense, pre-emergence
In short: as §1

lambsquarters = assay type: in vivo, Chenopodium album; conditions: Chenopodium album, pre-emergence
In short: as §1

yellow nutsedge = assay type: in vivo, Cyperus esculentus; conditions: Cyperus, pre-emergence
In short: as §1

pigweed = assay type: in vivo, Amaranthus retroflexus; conditions: Amaranthus retroflexus, pre-emergence
In short: as §1

ragweed = assay type: in vivo, Ambrosia elatior; conditions: Ambrosia artemisiifolia, pre-emergence
In short: as §1

soybean = assay type: in vivo, Glycine max; conditions: Glycine max, pre-emergence
In short: as §1

barnyardgrass = assay type: in vivo, Echinochloa crus-galli; conditions: Echinochloa crus-galli, pre-emergence
In short: as §1

oilseed rape = assay type: in vivo, Brassica napus; conditions: Brassica napus, pre-emergence
In short: as §1

waterhemp = assay type: in vivo, Amaranthus rudis; conditions: Amaranthus tuberculatus, pre-emergence
In short: as §1

velvetleaf = assay type: in vivo, Abutilon theophrasti; conditions: Abutilon theophrasti, pre-emergence
In short: as §1

## N#Cc1cccc(Oc2ncc(F)cn2)c1-n1cc(C(F)(F)F)cn1 [Compound 79, 3-[(5-fluoro-2-pyrimidinyl)oxy]-2-[4-(trifluoromethyl)-1H-pyrazol-1-yl]benzonitrile]
blackgrass; 62 g ai/ha, preemergence, scale 0 (no effect) to 100 (complete control), read-out: Blackgrass plant response rating
  pest or weed control at 62 g/ha: 90%
blackgrass; 125 g ai/ha, preemergence, scale 0 (no effect) to 100 (complete control), read-out: Blackgrass plant response rating
  pest or weed control at 125 g/ha: 90%
blackgrass; 250 g ai/ha, preemergence, scale 0 (no effect) to 100 (complete control), read-out: Blackgrass plant response rating
  pest or weed control at 250 g/ha: 90%
blackgrass; Preemergence, 31 g ai/ha, scale 0 to 100, 0 no effect, 100 complete control, read-out: Plant response rating, Blackgrass
  pest or weed control at 31 g/ha: 90%
wheat, winter; 62 g ai/ha, preemergence, scale 0 (no effect) to 100 (complete control), read-out: Wheat plant response rating
  plant injury at 62 g/ha: 35%
wheat, winter; 125 g ai/ha, preemergence, scale 0 (no effect) to 100 (complete control), read-out: Wheat plant response rating
  plant injury at 125 g/ha: 85%
wheat, winter; 250 g ai/ha, preemergence, scale 0 (no effect) to 100 (complete control), read-out: Wheat plant response rating
  plant injury at 250 g/ha: 90%
wheat, winter; Preemergence, 31 g ai/ha, scale 0 to 100, 0 no effect, 100 complete control, read-out: Plant response rating, Wheat
  plant injury at 31 g/ha: 10%
galium; 62 g ai/ha, preemergence, scale 0 (no effect) to 100 (complete control), read-out: Galium plant response rating
  pest or weed control at 62 g/ha: 90%
galium; 125 g ai/ha, preemergence, scale 0 (no effect) to 100 (complete control), read-out: Galium plant response rating
  pest or weed control at 125 g/ha: 90%
galium; 250 g ai/ha, preemergence, scale 0 (no effect) to 100 (complete control), read-out: Galium plant response rating
  pest or weed control at 250 g/ha: 90%
galium; Preemergence, 31 g ai/ha, scale 0 to 100, 0 no effect, 100 complete control, read-out: Plant response rating, Galium
  pest or weed control at 31 g/ha: 90%
Giant foxtail; 62 g ai/ha, preemergence, scale 0 (no effect) to 100 (complete control), read-out: Foxtail, Giant plant response rating
  pest or weed control at 62 g/ha: 100%
Giant foxtail; 125 g ai/ha, preemergence, scale 0 (no effect) to 100 (complete control), read-out: Foxtail, Giant plant response rating
  pest or weed control at 125 g/ha: 100%
Giant foxtail; 250 g ai/ha, preemergence, scale 0 (no effect) to 100 (complete control), read-out: Foxtail, Giant plant response rating
  pest or weed control at 250 g/ha: 100%
Giant foxtail; Preemergence, 31 g ai/ha, scale 0 to 100, 0 no effect, 100 complete control, read-out: Plant response rating, Foxtail, Giant
  pest or weed control at 31 g/ha: 98%
johnsongrass; 62 g ai/ha, preemergence, scale 0 (no effect) to 100 (complete control), read-out: Johnsongrass plant response rating
  pest or weed control at 62 g/ha: 90%
johnsongrass; 125 g ai/ha, preemergence, scale 0 (no effect) to 100 (complete control), read-out: Johnsongrass plant response rating
  pest or weed control at 125 g/ha: 100%
johnsongrass; 250 g ai/ha, preemergence, scale 0 (no effect) to 100 (complete control), read-out: Johnsongrass plant response rating
  pest or weed control at 250 g/ha: 100%
johnsongrass; Preemergence, 31 g ai/ha, scale 0 to 100, 0 no effect, 100 complete control, read-out: Plant response rating, Johnsongrass
  pest or weed control at 31 g/ha: 75%
lambsquarters; 62 g ai/ha, preemergence, scale 0 (no effect) to 100 (complete control), read-out: Lambsquarters plant response rating
  pest or weed control at 62 g/ha: 100%
lambsquarters; 125 g ai/ha, preemergence, scale 0 (no effect) to 100 (complete control), read-out: Lambsquarters plant response rating
  pest or weed control at 125 g/ha: 100%
lambsquarters; 250 g ai/ha, preemergence, scale 0 (no effect) to 100 (complete control), read-out: Lambsquarters plant response rating
  pest or weed control at 250 g/ha: 100%
lambsquarters; Preemergence, 31 g ai/ha, scale 0 to 100, 0 no effect, 100 complete control, read-out: Plant response rating, Lambsquarters
  pest or weed control at 31 g/ha: 100%
Yellow nutsedge; 62 g ai/ha, preemergence, scale 0 (no effect) to 100 (complete control), read-out: Nutsedge, Yellow plant response rating
  pest or weed control at 62 g/ha: 15%
Yellow nutsedge; 125 g ai/ha, preemergence, scale 0 (no effect) to 100 (complete control), read-out: Nutsedge, Yellow plant response rating
  pest or weed control at 125 g/ha: 65%
Yellow nutsedge; 250 g ai/ha, preemergence, scale 0 (no effect) to 100 (complete control), read-out: Nutsedge, Yellow plant response rating
  pest or weed control at 250 g/ha: 75%
Yellow nutsedge; Preemergence, 31 g ai/ha, scale 0 to 100, 0 no effect, 100 complete control, read-out: Plant response rating, Nutsedge, Yellow
  pest or weed control at 31 g/ha: 10%
pigweed; 62 g ai/ha, preemergence, scale 0 (no effect) to 100 (complete control), read-out: Pigweed plant response rating
  pest or weed control at 62 g/ha: 100%
pigweed; 125 g ai/ha, preemergence, scale 0 (no effect) to 100 (complete control), read-out: Pigweed plant response rating
  pest or weed control at 125 g/ha: 100%
pigweed; 250 g ai/ha, preemergence, scale 0 (no effect) to 100 (complete control), read-out: Pigweed plant response rating
  pest or weed control at 250 g/ha: 100%
pigweed; Preemergence, 31 g ai/ha, scale 0 to 100, 0 no effect, 100 complete control, read-out: Plant response rating, Pigweed
  pest or weed control at 31 g/ha: 100%
ragweed; 62 g ai/ha, preemergence, scale 0 (no effect) to 100 (complete control), read-out: Ragweed plant response rating
  pest or weed control at 62 g/ha: 90%
ragweed; 125 g ai/ha, preemergence, scale 0 (no effect) to 100 (complete control), read-out: Ragweed plant response rating
  pest or weed control at 125 g/ha: 90%
ragweed; 250 g ai/ha, preemergence, scale 0 (no effect) to 100 (complete control), read-out: Ragweed plant response rating
  pest or weed control at 250 g/ha: 90%
ragweed; Preemergence, 31 g ai/ha, scale 0 to 100, 0 no effect, 100 complete control, read-out: Plant response rating, Ragweed
  pest or weed control at 31 g/ha: 90%
soybean; 62 g ai/ha, preemergence, scale 0 (no effect) to 100 (complete control), read-out: Soybean plant response rating
  plant injury at 62 g/ha: 75%
soybean; 125 g ai/ha, preemergence, scale 0 (no effect) to 100 (complete control), read-out: Soybean plant response rating
  plant injury at 125 g/ha: 90%
soybean; 250 g ai/ha, preemergence, scale 0 (no effect) to 100 (complete control), read-out: Soybean plant response rating
  plant injury at 250 g/ha: 95%
soybean; Preemergence, 31 g ai/ha, scale 0 to 100, 0 no effect, 100 complete control, read-out: Plant response rating, Soybean
  plant injury at 31 g/ha: 75%
barnyardgrass; 62 g ai/ha, preemergence, scale 0 (no effect) to 100 (complete control), read-out: Barnyardgrass plant response rating
  pest or weed control at 62 g/ha: 100%
barnyardgrass; 125 g ai/ha, preemergence, scale 0 (no effect) to 100 (complete control), read-out: Barnyardgrass plant response rating
  pest or weed control at 125 g/ha: 100%
barnyardgrass; 250 g ai/ha, preemergence, scale 0 (no effect) to 100 (complete control), read-out: Barnyardgrass plant response rating
  pest or weed control at 250 g/ha: 100%
barnyardgrass; Preemergence, 31 g ai/ha, scale 0 to 100, 0 no effect, 100 complete control, read-out: Plant response rating, Barnyardgrass
  pest or weed control at 31 g/ha: 100%
Oilseed rape; 62 g ai/ha, preemergence, scale 0 (no effect) to 100 (complete control), read-out: Oilseed Rape plant response rating
  plant injury at 62 g/ha: 95%
Oilseed rape; 125 g ai/ha, preemergence, scale 0 (no effect) to 100 (complete control), read-out: Oilseed Rape plant response rating
  plant injury at 125 g/ha: 95%
Oilseed rape; 250 g ai/ha, preemergence, scale 0 (no effect) to 100 (complete control), read-out: Oilseed Rape plant response rating
  plant injury at 250 g/ha: 95%
Oilseed rape; Preemergence, 31 g ai/ha, scale 0 to 100, 0 no effect, 100 complete control, read-out: Plant response rating, Oilseed Rape
  plant injury at 31 g/ha: 90%
waterhemp; 62 g ai/ha, preemergence, scale 0 (no effect) to 100 (complete control), read-out: Waterhemp plant response rating
  pest or weed control at 62 g/ha: 100%
waterhemp; 125 g ai/ha, preemergence, scale 0 (no effect) to 100 (complete control), read-out: Waterhemp plant response rating
  pest or weed control at 125 g/ha: 100%
waterhemp; 250 g ai/ha, preemergence, scale 0 (no effect) to 100 (complete control), read-out: Waterhemp plant response rating
  pest or weed control at 250 g/ha: 100%
waterhemp; Preemergence, 31 g ai/ha, scale 0 to 100, 0 no effect, 100 complete control, read-out: Plant response rating, Waterhemp
  pest or weed control at 31 g/ha: 100%
velvetleaf; 62 g ai/ha, preemergence, scale 0 (no effect) to 100 (complete control), read-out: Velvetleaf plant response rating
  pest or weed control at 62 g/ha: 100%
velvetleaf; 125 g ai/ha, preemergence, scale 0 (no effect) to 100 (complete control), read-out: Velvetleaf plant response rating
  pest or weed control at 125 g/ha: 100%
velvetleaf; 250 g ai/ha, preemergence, scale 0 (no effect) to 100 (complete control), read-out: Velvetleaf plant response rating
  pest or weed control at 250 g/ha: 100%
velvetleaf; Preemergence, 31 g ai/ha, scale 0 to 100, 0 no effect, 100 complete control, read-out: Plant response rating, Velvetleaf
  pest or weed control at 31 g/ha: 90%
